These are literature values, as cited in patent US6045800A, “Composition for preventing or treating periodontal diseases comprising extract from Achyranthis radix or Ulmus cortex” (LG Chemical Ltd., priority 1997, dated 2000).

In this data set the test system is periodontal diseases.

Molecules are shown by their SMILES.

In the case of `CN(C)C1C(=O)C(C(N)=O)=C(O)C2(O)C(=O)C3=C(O)c4c(O)cccc4C(C)(O)C3CC12` (stereo not drawn) [tetracycline], where the note is “1000 mg/day for 5 to 7 days”, the “clinical effect on the symptom of the disease” value was “relieved to a clinically normal state”. Further, the “clinical effect of long term administration” value (daily dose of 1000 mg for 2 weeks, then 250 mg once daily for 48 weeks) is given as “gingivitis has clinically decreased”. Moreover, the side effects entry (use of the antibiotic) is “vomiting, a complaint for the ache of gastrointestinal tracts, diarrhea, dental coloring”.
